Measurements published in patent US20240398701A1, “MANUFACTURING METHODS FOR GASTRIC RESIDENCE SYSTEMS” (Lyndra Therapeutics, Inc., priority 2023, published 2024).

Experiment: Time-dependent behaviour in simulated gastric fluid over seven days
Assay type: physicochemical
Excerpt: In some embodiments, a gastric residence system may include one or more time-dependent disintegrating matrices instead of or in addition to one or more enteric disintegrating matrices. A time-dependent disintegrating matrix may include one or more time-dependent polymers or linkers, that is, polymers that degrade in a time-dependent manner in the gastric environment. […] Thus, a polymer that degrades in a time-dependent manner can be readily prepared by mixing Plastoid B and triacetin; the degradation time of the Plastoid B-triacetin mixture can be extended by increasing the amount of Plastoid B used in the mixture (that is, using less triacetin in the mixture), while the degradation time can be decreased by decreasing the amount of Plastoid B used in the mixture (that is, using more triacetin in the mixture).

## CC(=O)OCC(COC(C)=O)OC(C)=O [triacetin]
  release from a polymer formulation: releases from a polymer formulation in a time-dependent manner
